This is an account of results in patent US8193364B2, “Insecticidal N-substituted (6-haloalkylpyridin-3-yl)-alkyl sulfoximines” (Dow AgroSciences, LLC., priority 2006, dated 2012).

Where two headings read alike, the source gives them in different places. Some results are limits rather than exact numbers.

Common to all, as to assay type: in vivo
In experiment [1] the test system is Cotton Aphid (Aphis gossypii). Description: Cotton aphid foliar spray assay on squash. To be noted: 72 h, read-out: % Control of cotton aphid on squash (foliar spray). The method, then: Squash with fully expanded cotyledon leaves were trimmed to one cotyledon per plant and infested with cotton aphid (wingless adult and nymph) 1 day prior to chemical application. Each plant was examined before chemical application to ensure proper infestation (ca. 30-70 aphids per plant). Compounds (2 mg) were dissolved in 2 ml of acetone:methanol (1:1) solvent, forming stock solutions of 1000 ppm. The stock solutions were then diluted with a diluent consisting 80 parts of 0.025% Tween 20 in H2O and 20 parts of acetone:methanol (1:1). A hand-held Devilbiss sprayer was used to apply the test solutions until runoff to both sides of the squash cotyledon leaves. Four plants (4 replications) were used for each concentration of each compound. Reference plants (solvent check) were sprayed with the diluent only. Treated plants were held in a holding room for 3 days at approximately 23° C. and 40% RH before the number of live aphids on each plant was recorded. Insecticidal activity was measured by Corrected % Control using Abbott's correction formula and presented in Table 1: Corrected % Control=100*(X−Y)/X • where X=No. of live aphids on solvent check plants • Y=No. of live aphids on treated plants

In experiment [2] the test system is Green Peach Aphid (Myzus persicae). The experiment can be described thus: Green peach aphid foliar spray assay on cabbage. As to conditions: 72 h, read-out: % Control at ppm, foliar spray, green peach aphid on cabbage. How it is done: Cabbage seedlings grown in 3-inch pots, with 2-3 small (3-5 cm) true leaves, were used as test substrate. The seedlings were infested with 20-50 green peach aphids (wingless adult and nymph) 2-3 days prior to chemical application. Four seedlings were used for each treatment. Compounds (2 mg) were dissolved in 2 ml of acetone:methanol (1:1) solvent, forming stock solutions of 1000 ppm. The stock solutions were then diluted with a diluent consisting 80 parts of 0.025% Tween 20 in […] and 20 parts of acetone:methanol (1:1). A hand-held Devilbiss sprayer was used for spraying the test solutions to both sides of cabbage leaves until runoff. Reference plants (solvent check) were sprayed with the diluent only. Treated plants were held in a holding room for three days at approximately 23° C. and 40% RH prior to grading. Evaluation was conducted by counting the number of live aphids per plant under a microscope. Insecticidal activity was measured by using Abbott's correction formula: Corrected % Control=100*(X−Y)/X • where X=No. of live aphids on solvent check plants • Y=No. of live aphids on treated plants The Corrected % Control values from assays are given in Table 2.

The test system of experiment [3] is Green Leafhopper (Nephotettix sp.). The experiment can be described thus: Green leafhopper root-uptake systemic assay on rice. How it is done: (§1) A foliar spray assay and a root-uptake systemic assay were performed on both brown planthopper and green leafhopper. Four-week-old rice seedlings were submerged in 3-cm depth of water in the bottom portion (high 5 cm, diameter 3 cm) of a 2-part glass cylinder (high 18 cm, diameter 3 cm). A metal screen was used to hold the seedlings within the bottom portion. Scotch tape was used to bind the two portions of the cylinder after setting up the seedlings. A metal cap was used to cover the cylinder. There were 4 cylinders for each treatment. The test compound was dissolved in acetone to make a 10,000 ppm stock solution. For the foliar spray assay, this stock solution was diluted with water to make 10, 2.5, 0.31, 0.08 and 0.02 ppm test solutions. A volume of 0.5 ml of a test solution or solvent blank as check was sprayed into the glass cylinder. For systemic test, the stock solution was incorporated at final test concentrations of 10, 2.5, 0.31, 0.08 and 0.02 ppm in the water in which rice seedlings were submerged. In both foliar spray and systemic tests, five laboratory-reared 3rd instar nymphs of brown planthopper or green leafhopper were introduced into each cylinder 3 hr after insecticide application. The treated test units were kept in a growth chamber with conditions set as followings: Temperature 28±0.5° C.; Relative humidity 70±0.5%; Photoperiod […].

The test system is the same in experiment [4]. The experiment can be described thus: Green leafhopper foliar spray assay on rice. How it is done:
as §1

Experiment [5] deals with Brown Planthopper (Nilaparvata lugens). The experiment can be described thus: Brown planthopper root-uptake systemic assay on rice. How it is done: as §1
The test system is the same in experiment [6]. The experiment can be described thus: Brown planthopper foliar spray assay on rice. The method, then: as §1

Turning to `CS(=O)(Cc1ccc(C(F)(F)F)nc1)=NC#N` (centres unmarked) [Compound 1, [(6-trifluoromethylpyridin-3-yl)methyl](methyl)-oxido-λ^4-sulfanylidenecyanamide], the pest or weed control at 0.049 ppm in experiment [1] (0.049 ppm, 3 days after spray) fell in the range of 90 to 100%. Also, in experiment [1] (0.195 ppm, 3 days after spray), the pest or weed control at 0.195 ppm is 90 to 100%. Also, the pest or weed control at 0.781 ppm in experiment [1] (0.781 ppm, 3 days after spray) was 90 to 100%; in experiment [2] (0.781 ppm, 3 days after spray) it was less than 50%. In addition, the pest or weed control at 3.13 ppm in experiment [1] (3.13 ppm, 3 days after spray) is 90 to 100%. Further, the pest or weed control at 3.125 ppm in experiment [2] (3.125 ppm, 3 days after spray) was in the range of 90 to 100%.

Regarding `N#CN=S1(=O)CCCC1c1ccc(C(F)(F)F)nc1` (centres unmarked) [Compound 3, 2-(6-trifluoromethylpyridin-3-yl)-1-oxidotetrahydro-1H-1λ^4-thien-1-ylidenecyanamide], in experiment [1] (0.049 ppm, 3 days after spray), the pest or weed control at 0.049 ppm is 90 to 100%. Further, the pest or weed control at 0.195 ppm is 90 to 100% in experiment [1] (0.195 ppm, 3 days after spray) and less than 50% in experiment [2] (0.195 ppm, 3 days after spray). The pest or weed control at 0.781 ppm in experiment [1] (0.781 ppm, 3 days after spray) was 90 to 100%; in experiment [2] (0.781 ppm, 3 days after spray) it was less than 50%. In addition, the pest or weed control at 3.13 ppm in experiment [1] (3.13 ppm, 3 days after spray) was 90 to 100%. Besides, the pest or weed control at 3.125 ppm in experiment [2] (3.125 ppm, 3 days after spray) lay in the range of 60 to 69%.

For the molecule `CC(c1ccc(C(F)(F)Cl)nc1)S(C)(=O)=NC#N` (centres unmarked) [Compound 4, (1-{6-[chloro(difluoro)methyl]pyridin-3-yl}ethyl)(methyl)-oxido-λ^4-sulfanylidenecyanamide], the “% Control at ppm against green leafhopper” value in experiment [3] (0.02 ppm in water) is “E (50-59)”; in experiment [3] (0.08 ppm in water) it was “C (70-79)”; in experiment [3] (0.31 ppm in water), “A (90-100)”; in experiment [3] (2.5 ppm in water), “A (90-100)”; in experiment [3] (10 ppm in water), “A (90-100)”; in experiment [4] (0.02 ppm) it was “E (50-59)”. The “% Control at ppm against green leafhopper” value in experiment [4] (0.08 ppm) was “B (80-89)”; in experiment [4] (0.31 ppm) it was “A (90-100)”; in experiment [4] (2.5 ppm), “A (90-100)”; in experiment [4] (10 ppm), “A (90-100)”. Besides, the pest or weed control at 0.049 ppm in experiment [1] is 90 to 100%. Also, the pest or weed control at 0.195 ppm in experiment [1] was 90 to 100%; in experiment [2], 80 to 89%. The pest or weed control at 0.781 ppm in experiment [1] and in experiment [2] was 90 to 100% in each case. Besides, the pest or weed control at 3.13 ppm in experiment [1] was in the range of 90 to 100%. Besides, the “% Control at ppm against brown planthopper” value is reported as “F (Less than 50)” in experiment [5] (0.02 ppm in water); “E (50-59)” in experiment [5] (0.08 ppm in water); “A (90-100)” in experiment [5] (0.31 ppm in water); “A (90-100)” in experiment [5] (2.5 ppm in water); “A (90-100)” in experiment [5] (10 ppm in water); “F (Less than 50)” in experiment [6] (0.02 ppm). Also, the “% Control at ppm against brown planthopper” value was “E (50-59)” in experiment [6] (0.08 ppm), “B (80-89)” in experiment [6] (0.31 ppm), “A (90-100)” in experiment [6] (2.5 ppm) and “A (90-100)” in experiment [6] (10 ppm). Besides, the pest or weed control at 3.125 ppm in experiment [2] lay in the range of 90 to 100%.

For the molecule `CC(c1ccc(C(Cl)(Cl)Cl)nc1)S(C)(=O)=NC#N` (centres unmarked) [Compound 5, [1-(6-trichloromethylpyridin-3-yl)ethyl](methyl)-oxido-λ^4-sulfanylidenecyanamide], in experiment [1], the pest or weed control at 0.049 ppm lay within 50 to 59%, the pest or weed control at 0.195 ppm fell in the range of 80 to 89%, the pest or weed control at 0.781 ppm lay within 90 to 100% and the pest or weed control at 3.13 ppm lay within 90 to 100%. Moreover, in experiment [2], the pest or weed control at 0.781 ppm was less than 50% and the pest or weed control at 3.125 ppm fell in the range of 80 to 89%.

`CS(=O)(CCc1ccc(C(F)(F)F)nc1)=NC#N` (centres unmarked) [Compound 6, [2-(6-trifluoromethylpyridin-3-yl)ethyl](methyl)-oxido-λ^4-sulfanylidenecyanamide]: the pest or weed control at 0.781 ppm in experiment [1] (0.781 ppm, 3 days after spray) is 80 to 89%. In experiment [1] (3.13 ppm, 3 days after spray), the pest or weed control at 3.13 ppm is 80 to 89%.

Turning to `CS(=O)(Cc1ccc(C(F)F)nc1)=NC#N` (centres unmarked) [Compound 7, [(6-difluoromethylpyridin-3-yl)methyl](methyl)-oxido-λ^4-sulfanylidenecyanamide], the pest or weed control at 0.049 ppm in experiment [1] (0.049 ppm, 3 days after spray) was less than 50%. For the same molecule, in experiment [1] (0.195 ppm, 3 days after spray), the pest or weed control at 0.195 ppm was in the range of 80 to 89%. In experiment [1] (0.781 ppm, 3 days after spray), the pest or weed control at 0.781 ppm was 90 to 100%. The pest or weed control at 3.13 ppm in experiment [1] (3.13 ppm, 3 days after spray) is 90 to 100%.

With `CC(c1ccc(C(F)F)nc1)S(C)(=O)=NC#N` (centres unmarked) [Compound 8, [1-(6-difluoromethylpyridin-3-yl)ethyl](methyl)-oxido-λ^4-sulfanylidenecyanamide], the pest or weed control at 0.049 ppm in experiment [1] (0.049 ppm, 3 days after spray) is 70 to 79%. In addition, the pest or weed control at 0.195 ppm in experiment [1] (0.195 ppm, 3 days after spray) was 90 to 100%; in experiment [2] (0.195 ppm, 3 days after spray), less than 50%. Moreover, the pest or weed control at 0.781 ppm in experiment [1] (0.781 ppm, 3 days after spray) was 90 to 100%; in experiment [2] (0.781 ppm, 3 days after spray) it was less than 50%. Besides, the pest or weed control at 3.13 ppm in experiment [1] (3.13 ppm, 3 days after spray) fell in the range of 90 to 100%. Besides, in experiment [2] (3.125 ppm, 3 days after spray), the pest or weed control at 3.125 ppm was less than 50%.

As for `CC(c1ccc(C(F)(F)C(F)(F)F)nc1)S(C)(=O)=NC#N` (centres unmarked) [Compound 9, [1-(6-pentafluoroethylpyridin-3-yl)ethyl](methyl)-oxido-λ^4-sulfanylidenecyanamide], in experiment [1] (0.781 ppm, 3 days after spray), the pest or weed control at 0.781 ppm is 50 to 59%. Besides, in experiment [1] (3.13 ppm, 3 days after spray), the pest or weed control at 3.13 ppm fell in the range of 90 to 100%.

With `N#CN=S1(=O)CCCC1Cc1ccc(C(F)(F)F)nc1` (centres unmarked) [Compound 10, 2-[(6-trifluoromethylpyridin-3-yl)methyl]-1-oxidotetrahydro-1H-1λ^4-thien-1-ylidenecyanamide], in experiment [1], the pest or weed control at 0.781 ppm lay within 60 to 69% and the pest or weed control at 3.13 ppm was 70 to 79%.

In the case of `CC(c1ccc(C(F)(F)F)nc1)S(C)(=O)=N[N+](=O)[O-]` (centres unmarked) [Compound 11, 2-trifluoromethyl-5-(1-{methyl(oxido)[oxido(oxo)hydrazono]-λ^4-sulfanyl}ethyl)pyridine], the pest or weed control at 0.049 ppm in experiment [1] (0.049 ppm, 3 days after spray) lay within 60 to 69%. For the same molecule, the pest or weed control at 0.195 ppm in experiment [1] (0.195 ppm, 3 days after spray) lay within 60 to 69%; in experiment [2] (0.195 ppm, 3 days after spray), 70 to 79%. The pest or weed control at 0.781 ppm lay in the range of 90 to 100% in experiment [1] (0.781 ppm, 3 days after spray) and 80 to 89% in experiment [2] (0.781 ppm, 3 days after spray). In addition, the pest or weed control at 3.13 ppm in experiment [1] (3.13 ppm, 3 days after spray) lay within 90 to 100%. The pest or weed control at 3.125 ppm in experiment [2] (3.125 ppm, 3 days after spray) lay within 90 to 100%.

Take `CC(c1ccc(C(C)(F)F)nc1)S(C)(=O)=NC#N` (centres unmarked) [Compound 12]: the pest or weed control at 0.781 ppm lay in the range of 90 to 100% in experiment [1] (0.781 ppm, 3 days after spray) and 50 to 59% in experiment [2] (0.781 ppm, 3 days after spray). In addition, the pest or weed control at 3.13 ppm in experiment [1] (3.13 ppm, 3 days after spray) was in the range of 90 to 100%. In addition, the pest or weed control at 3.125 ppm in experiment [2] (3.125 ppm, 3 days after spray) lay within 80 to 89%.
